Measured values reported in patent US7825256B2, “Inducible nitric oxide synthase dimerization inhibitors” (Kalypsys, Inc., priority 2004, dated 2010).
pEC50: −log10 of the molar value.

What was measured:
hiNOS = biological target: T1, hiNOS (Homo sapiens, UniProt P35228); test: DAN assay, hiNOS expressed in transiently transfected HEK293 cells; type: cell-based; conditions: HEK293 cells transiently transfected with hiNOS
T1 construct: expressed in transfected cells; host or cells: HEK293
Procedure, shortened: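 Human iNOS, nNOS or eNOS transiently expressed in HEK293 cells, with nNOS and eNOS needing added cofactors for activity. NO production is read as nitrite by fluorometry: 2,3-diaminonaphthalene forms fluorescent […], detecting 10 nM to 10 μM nitrite.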

iNOS = biological target: T2, iNOS (Rattus norvegicus, UniProt Q06518); test: LPS challenge (LPS induced iNOS in vivo); conditions: for ED50: ED50 class
T2 construct: from tissue; host or cells: whole animal: male Lewis rats after LPS injection; blood samples collected
Source text: Inhibition of induction of iNOS can be quantified via the LPS challenge. Inflammation, edema, and the onset of sepsis can be observed following an injection of lipopolysaccharide (LPS), a substance produced by Gram-negative bacteria. […] (Iuvone T et al., Evidence that inducible nitric oxide synthase is involved in LPS-mediated plasma leakage in rat skin through the activation of nuclear factor-κB, Br J Pharm 1998:123 1325-1330.) As described above, the level of nitric oxide in the specimen can be quantified by correlation with plasma nitrate or nitrite levels via chemiluminescence, fluorescence, spectrophotometric assays, or by any method known in the art which provides adequate sensitivity and reproducibility, including those described above.
Male Lewis rats weighing 150-250 g are used in the studies. Rats may be fasted for up to 16 hours prior to the administration of LPS. Free access to water is maintained. Test compounds are administered with LPS or alone. Compounds are dissolved in the vehicle of 0.5% methycele/0.025% Tween 20 or 20% encapsin for oral administration. For the intravenous dosing, compounds are dissolved in saline or 0.5-3% DMSO/20% encapsin. The dosing volumes are 1-2 ml for oral and 0.3-1 ml for intravenous administration.
LPS is injected intravenously (under anesthesia) or intraperitoneally in sterile saline at a dose between 0.1-10 mg/kg in a volume not excess to 1 ml. The needle is 26-30 gauge. […] In routine screening experiments, rats are sacrificed 1.5-6 hr after LPS injection and a terminal bleeding is performed under anesthesia to collect 1-3 ml blood samples and then animals are then euthanized by CO2.

Row | SMILES | pEC50 (hiNOS) | ED50 (iNOS) [mg/kg] | inhibition at 16 mg/kg (iNOS; at 16 mg/kg) [%]
1 | CN(CCCNCc1ccc2c(c1)OCO2)c1nc(-n2ccnc2)ns1 [Example 2, N′-Benzo[1,3]dioxol-5-ylmethyl-N-(3-imidazol-1-yl-[1,2,4]thiadiazol-5-yl)-N-methyl-propane-1,3-diamine] | > 6.00 | < 10 | 
2 | Cc1cc(C2CCCN2C(=O)NCCc2ccc3c(c2)OCO3)nc(-n2ccnc2)n1 (stereo not drawn) [Example 4, 2-(2-Imidazol-1-yl-6-methyl-pyrimidin-4-yl)-pyrrolidine-1-carboxylic acid (2-benzo[1,3]dioxol-5-yl-ethyl)-amide] | > 6.00 | < 10 | 
3 | Cc1cc(C2CCCN2C(=O)CNCc2ccc3c(c2)OCO3)nc(-n2ccnc2)n1 (stereo not drawn) [Example 5] | > 6.00 |  | 64
